Assay [1] concerns the target T1, 5-hydroxytryptamine receptor 1A (Rattus norvegicus, UniProt P19327).
T1 sequence (P19327 whole entry): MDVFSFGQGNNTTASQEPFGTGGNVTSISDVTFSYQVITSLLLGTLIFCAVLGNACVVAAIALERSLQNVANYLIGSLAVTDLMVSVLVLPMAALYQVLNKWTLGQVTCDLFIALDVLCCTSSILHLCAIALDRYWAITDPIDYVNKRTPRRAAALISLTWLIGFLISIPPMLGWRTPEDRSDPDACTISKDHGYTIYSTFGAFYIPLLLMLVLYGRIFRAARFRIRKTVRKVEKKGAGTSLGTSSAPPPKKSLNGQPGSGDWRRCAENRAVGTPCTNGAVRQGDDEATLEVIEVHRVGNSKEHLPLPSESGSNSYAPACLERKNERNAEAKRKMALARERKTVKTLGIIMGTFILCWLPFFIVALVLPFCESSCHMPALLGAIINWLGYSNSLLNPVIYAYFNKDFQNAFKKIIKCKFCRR
Kind of assay: In vitro ability to displace the radioligand [3H]-OH-DPAT from binding to rat 5-hydroxytryptamine 1A receptor.

Assay [2] addresses 5-hydroxytryptamine receptor 7 (Rattus norvegicus, UniProt P32305). Kind of assay: In vitro ability to displace the radioligand [3H]5-CT from binding to rat 5-hydroxytryptamine 7 receptor.

Broadly, the Ki is the equilibrium dissociation constant of an inhibitor or competing ligand from its target. Read a high Ki as weaker binding.

Sequence of 5-hydroxytryptamine receptor 7 (P32305 whole entry): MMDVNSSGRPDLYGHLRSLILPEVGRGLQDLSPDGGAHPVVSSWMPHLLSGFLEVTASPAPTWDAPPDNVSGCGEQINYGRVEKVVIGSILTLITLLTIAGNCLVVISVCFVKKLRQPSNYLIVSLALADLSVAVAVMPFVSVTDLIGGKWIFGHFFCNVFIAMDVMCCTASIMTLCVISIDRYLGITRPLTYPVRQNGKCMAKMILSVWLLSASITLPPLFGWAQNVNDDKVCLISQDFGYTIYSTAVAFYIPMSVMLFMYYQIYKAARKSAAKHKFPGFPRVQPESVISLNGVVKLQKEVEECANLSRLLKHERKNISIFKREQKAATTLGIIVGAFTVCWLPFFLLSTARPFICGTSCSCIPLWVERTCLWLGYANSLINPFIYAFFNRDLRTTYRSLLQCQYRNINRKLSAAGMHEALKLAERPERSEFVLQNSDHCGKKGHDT

In the case of `COc1ccccc1N1CCN(Cc2ccccc2CN2C(=O)CCC2=O)CC1`, the Ki in assay [1] was 415 nM; in assay [2], 910 nM.

Regarding `COc1ccccc1N1CCN(C/C=C\CN2C(=O)c3ccccc3C2=O)CC1`, the Ki in assay [1] was found to be 77 nM; in assay [2] it was 353 nM.

As for `COc1ccccc1N1CCN([C@H]2CC[C@H](N3C(=O)CCC3=O)CC2)CC1`, the figures for the Ki in assay [1] and in assay [2] were 15.2 nM and 11500 nM, respectively.

In the case of `COc1ccccc1N1CCN(C/C=C\CN2C(=O)CCC2=O)CC1`, the Ki was found to be 157 nM in assay [1] and 790 nM in assay [2].

As to `COc1ccccc1N1CCN([C@H]2CC[C@H](N3C(=O)c4ccccc4C3=O)CC2)CC1`, the Ki in assay [1] came to 8 nM; in assay [2], 2040 nM.

On to `COc1ccccc1N1CCN(Cc2ccccc2CN2C(=O)c3ccccc3C2=O)CC1`, for which the Ki stood at 405 nM in assay [1] and 367 nM in assay [2].

For `COc1ccccc1N1CCN(C/C=C/CN2C(=O)c3ccccc3C2=O)CC1`, the Ki was determined as 5 nM in assay [1] and 36 nM in assay [2].

`COc1ccccc1N1CCN(C/C=C/CN2C(=O)CCC2=O)CC1`: the inhibition constant (Ki) was 29 nM in assay [1] and 63 nM in assay [2].

The values above are taken from ChEMBL document CHEMBL1137063, “The impact of spacer structure on 5-HT7 and 5-HT1A receptor affinity in the group of long-chain arylpiperazine ligands” (Bioorg Med Chem Lett, 2004).
